PubChem BioAssay AID1963839 (Molecular Pharmacology Branch, DTP, NCI, 2024)

Tested on: 817829-284-R-J1-PDC complex spheroid viability
Test: Anticancer human tumor 817829-284-R-J1-PDC patient-derived colon adenocarcinoma cell line growth inhibition [POLQ]
Details: for IC50: curve of first compound; for viability, T/C: stronger effect = lower value; active = viability on the fitted dose curve at most 10% of control; inactive = the rest
Summary of the method: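 Growth inhibition in 3D: complex spheroids (tumor PDC, HUVEC, MSC) treated with POLQ inhibitor combinations; where Cmax unknown, highest tested concentration 10 microM, except SN-38 at 1 microM.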

[1] = second compound 0.0316 µM, first compound 0.0316 µM
[2] = second compound 0.0316 µM, first compound 0.1 µM
[3] = second compound 0.0316 µM, first compound 0.316 µM
[4] = second compound 0.0316 µM, first compound 1 µM
[5] = second compound 0.0316 µM, first compound 3.16 µM
[6] = second compound 0.0316 µM, first compound 10 µM
[7] = second compound 0.1 µM, first compound 0.0316 µM
[8] = second compound 0.1 µM, first compound 0.1 µM
[9] = second compound 0.1 µM, first compound 0.316 µM
[10] = second compound 0.1 µM, first compound 1 µM
[11] = second compound 0.1 µM, first compound 3.16 µM
[12] = second compound 0.1 µM, first compound 10 µM
[13] = second compound 0.316 µM, first compound 0.0316 µM
[14] = second compound 0.316 µM, first compound 0.1 µM
[15] = second compound 0.316 µM, first compound 0.316 µM
[16] = second compound 0.316 µM, first compound 1 µM
[17] = second compound 0.316 µM, first compound 3.16 µM
[18] = second compound 0.316 µM, first compound 10 µM
[19] = second compound 1 µM, first compound 0.0316 µM
[20] = second compound 1 µM, first compound 0.1 µM
[21] = second compound 1 µM, first compound 0.316 µM
[22] = second compound 1 µM, first compound 1 µM
[23] = second compound 1 µM, first compound 3.16 µM
[24] = second compound 1 µM, first compound 10 µM
[25] = second compound 3.16 µM, first compound 0.0316 µM
[26] = second compound 3.16 µM, first compound 0.1 µM
[27] = second compound 3.16 µM, first compound 0.316 µM
[28] = second compound 3.16 µM, first compound 1 µM
[29] = second compound 3.16 µM, first compound 3.16 µM
[30] = second compound 3.16 µM, first compound 10 µM
[31] = second compound 10 µM, first compound 0.0316 µM
[32] = second compound 10 µM, first compound 0.1 µM
[33] = second compound 10 µM, first compound 0.316 µM
[34] = second compound 10 µM, first compound 1 µM
[35] = second compound 10 µM, first compound 3.16 µM
[36] = second compound 10 µM, first compound 10 µM
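Also: spheroids exposed to compounds for 7 days.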
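For viability, T/C in this document: 100% = DMSO vehicle-treated spheroids.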

C#Cc1c(F)ccc2cc(O)cc(-c3ncc4c(N5CC6CCC(C5)N6)nc(OCC56CCCN5CC(F)C6)nc4c3F)c12 (centres undefined) + Cc1cccc(N(C)C(=O)C2C(O)CCN2c2nc(C)cc(C(F)(F)F)c2C#N)c1
7.2 µM: IC50 (second compound 1 µM)
> 10 µM: IC50 (second compound 0.0316 µM) | IC50 (second compound 0.1 µM) | IC50 (second compound 0.316 µM) | IC50 (second compound 3.16 µM)
inactive: viability, T/C [1] 104% | viability, T/C [2] 112% | viability, T/C [3] 85.5% | viability, T/C [4] 85.9% | viability, T/C [5] 112% | viability, T/C [6] 60.9% | viability, T/C [7] 93% | viability, T/C [8] 75.6% | viability, T/C [9] 88% | viability, T/C [10] 95.1% | viability, T/C [11] 136% | viability, T/C [12] 76% | viability, T/C [13] 62.5% | viability, T/C [14] 75.8% | viability, T/C [15] 95% | viability, T/C [16] 97.9% | viability, T/C [17] 79.7% | viability, T/C [18] 63.5% | viability, T/C [19] 94.7% | viability, T/C [20] 86.9% | viability, T/C [21] 93% | viability, T/C [22] 118% | viability, T/C [23] 97% | viability, T/C [24] 31.2% | viability, T/C [25] 108% | viability, T/C [26] 82.3% | viability, T/C [27] 86.1% | viability, T/C [28] 87% | viability, T/C [29] 97.3% | viability, T/C [30] 89.4% | viability, T/C [31] 99.7% | viability, T/C [32] 108% | viability, T/C [33] 90.2% | viability, T/C [34] 96.4% | viability, T/C [35] 89.3% | viability, T/C [36] 40.7%
8.06 µM: IC50 (second compound 10 µM)

CC1COCCN1c1cc(C2(O)CC3CCC(C2)O3)c2cnn(-c3ccn[nH]3)c2n1 (centres undefined) + Cc1cccc(N(C)C(=O)C2C(O)CCN2c2nc(C)cc(C(F)(F)F)c2C#N)c1
< 0.0316 µM: IC50 (second compound 0.0316 µM) | IC50 (second compound 0.1 µM) | IC50 (second compound 0.316 µM) | IC50 (second compound 1 µM) | IC50 (second compound 3.16 µM) | IC50 (second compound 10 µM)
active: viability, T/C [3] 4.5% | viability, T/C [4] 3.59% | viability, T/C [5] 2.99% | viability, T/C [6] 2.26% | viability, T/C [9] 4.57% | viability, T/C [10] 3.83% | viability, T/C [11] 3.59% | viability, T/C [12] 2.95% | viability, T/C [14] 9.76% | viability, T/C [15] 3.78% | viability, T/C [16] 3.72% | viability, T/C [17] 3.01% | viability, T/C [18] 1.9% | viability, T/C [21] 4.66% | viability, T/C [22] 4.17% | viability, T/C [23] 2.77% | viability, T/C [24] 2.21% | viability, T/C [26] 9.02% | viability, T/C [27] 5.06% | viability, T/C [28] 3.24% | viability, T/C [29] 2.62% | viability, T/C [30] 2.27% | viability, T/C [33] 6.05% | viability, T/C [34] 3.31% | viability, T/C [35] 2.74% | viability, T/C [36] 2.44%
inactive: viability, T/C [1] 28.6% | viability, T/C [2] 10.7% | viability, T/C [7] 29.8% | viability, T/C [8] 11.4% | viability, T/C [13] 28.6% | viability, T/C [19] 24.4% | viability, T/C [20] 9.97% | viability, T/C [25] 26.8% | viability, T/C [31] 23% | viability, T/C [32] 10.3%
